From BindingDB's records for patent US20230285340 (Theravance Biopharma R&D Ip, 2023) come the findings set out here.

Structures are written as SMILES.

This experiment addresses Neprilysin/Angiotensin-converting enzyme (Homo sapiens, UniProt P08473+P12821). Description: Enzyme Inhibition Assays (Assay 1).

Procedure: The assays were performed in 384-well white opaque plates at 37° C. using the fluorogenic peptide substrates at a concentration of 10 μM in Assay Buffer (NEP: 50 mM HEPES, pH 7.5, 100 mM NaCl, 0.01% polyethylene glycol sorbitan monolaurate (Tween-20), 10 μM ZnSO4; ACE: 50 mM HEPES, pH 7.5, 100 mM NaCl, 0.01% Tween-20, 1 μM ZnSO4). […] Test compounds were added to the enzymes and incubated for 30 minute at 37° C. prior to initiating the reaction by the addition of substrate. Reactions were terminated after 20 minutes of incubation at 37° C. by the addition of glacial acetic acid to a final concentration of 3.6% (v/v). […] Inhibition constants were obtained by nonlinear regression of the data using the equation (GraphPad Software, Inc., San Diego, Calif.)

By Ki is commonly meant a measure of affinity in units of concentration, obtained from inhibition or displacement. Read a low Ki as higher affinity. `CC(C)OC(=O)C(=O)N[C@H](Cc1ccc(-c2cccc(Cl)c2)cc1)C[C@@H](O)C(=O)O` [US20230285340, Example 2G] registered a Ki of 0.00126 to 0.01 µM.

On to `CC(C)COC(=O)[C@H](O)C[C@@H](Cc1ccc(-c2cccc(Cl)c2)cc1)NC(=O)C(=O)O` [US20230285340, Example 2I], for which the inhibitory constant (Ki) is 0.00126 to 0.01 µM.

As for `CC(C)OC(=O)[C@H](O)C[C@@H](Cc1ccc(-c2cccc(Cl)c2)cc1)NC(=O)C(=O)O` [US20230285340, Example 2J], the Ki was 0.0126 to 0.1 µM.

Consider `O=C(O)C(=O)N[C@H](Cc1ccc(-c2ccccc2)cc1Cl)C[C@@H](O)C(=O)O` [US20230285340, Example 4], for which the Ki lay within 0.00126 to 0.01 µM.

As to `C[C@@](CO)(C[C@@H](Cc1ccc(-c2ccccc2)cc1)NC(=O)C(=O)O)C(=O)O` [US20230285340, Example 9A], the Ki lay within 0.00126 to 0.01 µM.

Take `C[C@@](CO)(C[C@@H](Cc1ccc(-c2cccc(F)c2)cc1)NC(=O)C(=O)O)C(=O)O` [US20230285340, Example 10]: the Ki lay within 0.00126 to 0.01 µM.

The compound `CC(O)(CN(Cc1ccc(-c2ccccc2)cc1)NC(=O)C(=O)O)C(=O)O` (stereo unspecified) [US20230285340, Example 12] came in with an inhibition constant Ki of 0.0126 to 0.1 µM.

In turn, `O=C(O)C(=O)NN(Cc1ccc(-c2cccc(Cl)c2)cc1)C[C@@H](O)C(=O)O` [US20230285340, Example 13] gave a Ki of 0.00126 to 0.01 µM.

Compound `CCOC(=O)C(=O)NN(Cc1ccc(-c2cc(Cl)ccc2F)cc1)C[C@@H](O)C(=O)O` [US20230285340, Example 14F] showed a Ki of 0.00126 to 0.01 µM.

`CC(C)(c1ccc(-c2ccccc2)cc1)[C@H](C[C@@H](O)C(=O)O)NC(=O)C(=O)O` [US20230285340, Example 15] yielded an inhibition constant (Ki) of 0.0126 to 0.1 µM.

The compound `CC(C)(c1ccc(-c2ccccc2)cc1)[C@H](C[C@@H](CO)C(=O)O)NC(=O)C(=O)O` [US20230285340, Example 16] yielded a Ki of 0.00126 to 0.01 µM.
